Experimental findings from patent US20180282605A1, “METHOD OF MONITORING A PARAMETER OF A HYDROCARBON WELL, PIPELINE OR FORMATION” (JOHNSON MATTHEY PUBLIC LIMITHED COMPANY, priority 2015, published 2018) are described below.

A short description of the data set: log P (octanol/water) of tracer anions. Format: physicochemical. The following applies: log of ratio of equilibrium concentration in oil (octanol) to that in water, representative example values. The text has this:
The invention concerns the use of halogenated thiophene carboxylic acids or halogenated thiophene sulfonic acids, or salts of either, in tracing applications in hydrocarbon wells. Such compounds are not naturally found in hydrocarbon wells and formations and have not been previously used as tracers in such wells and formations. Tracers comprising such compounds may therefore be used as tracers in such wells and formations without the results of the tracing being affected by contamination. Moreover, the applicant has determined that non-halogenated thiophene compounds exist naturally in hydrocarbon formations and the compounds of the invention are therefore expected to be sufficiently stable, for example to have sufficient thermal stability, to survive the conditions in a hydrocarbon well. Since, unlike the naturally occurring thiophene compounds, the compounds of formula 1 are halogenated they are advantageously also detectable, for example using GC-MS, in very low concentrations, for example concentrations of 1 ppb or less, preferably concentrations of 100 ppt or less, more preferably concentrations of 10 ppt or less and yet more preferably concentrations of 1 ppt or less. The compounds of the invention may also show a high selectivity towards water instead of oil. Thus the tracer may be a water tracer. […] The log P value is a well-known value for characterising the preference of a compound for water or oil. The value is the log of the ratio of the equilibrium concentration of the compound in oil (octanol) to the equilibrium concentration of the compound in water. Thus the concentration of the compound in water is preferably at least 10 times, and more preferably at least 100 times, that of the compound in oil. It may be that the salt of the compound (or the anion of the salt) is more soluble in water than the acid. For that reason, it is preferable to use the salt as the tracer.

As to `O=C(O)c1csc(Cl)c1`, the logP is -1.35. The value for `O=C(O)c1csc(F)c1` was -1.81; that for `Cc1cc(C(=O)O)sc1F` was -1.16.
